The conditions of data set [1]: phosphate buffer pH 7.0, terpene alcohol ethoxylates 20 wt. %, versus buffer alone; cited from earlier work.
Data set [2] is described as follows: Turbidity of wet-milled reference drug suspensions without excipient. Type of data set: physicochemical. Particulars: 26 mg/L Probucol, assuming linear relationship between undissolved drug and turbidity. As to the method: Moreover, wet-milled drug suspensions were analyzed as reference samples to determine the turbidity of the drugs in the absence of excipients. […] 78.6 g of yttrium-stabilized zirconia grinding beads (YTZ from Tosoh Corp., diameter: 0.5 mm) were provided in a 50 mL plastic bottle and 10.0 g deionized water and 0.54 g of the respective drug were added. In the case of Probucol, a dispersant, Daxad 19LS (from Hampshire Chem. Corp.), was added in an amount corresponding to 1 wt. % of the mass of Probucol to counteract coating of the milling beads by the drug. The resulting mixture was placed on a rotating ball mill for 24 h. Subsequently 11.06 g of deionized water were added, the suspension was shaken extensively and then separated from the milling beads. An aliquot of 0.20 g of this suspension was further diluted with 49.80 g of deionized water to yield a suspension having a nominal drug concentration of 0.01 wt. %, which was then analyzed for its turbidity using a Nepheloskan Ascent instrument from ThermoLabsystem. […] Table 5 summarizes the measured turbidity of the wet milled reference drug suspensions along with the average particle size of the suspended drug particles measured using a 90 Plus Particle Size Analyzer instrument from Brookhaven Instruments Corp. and literature values for the aqueous solubility of the drugs.

With `Nc1ccc(S(=O)(=O)Nc2nccs2)cc1` [sulfathiazole], the “Increase of saturation drug concentration (factor)” value in data set [1] is “about 14”.
Consider `CC(C)(Sc1cc(C(C)(C)C)c(O)c(C(C)(C)C)c1)Sc1cc(C(C)(C)C)c(O)c(C(C)(C)C)c1` [Probucol], for which the “Turbidity calculated for a Probucol suspension” value in data set [2] is reported as around 24 RNU.

(Values after patent US9592294B2, “Polyalkoxylated alcohols as excipients for pharmaceutical compositions” (Dow Global Technologies LLC, priority 2013, dated 2017).)
